Patent US20250346580A1, “NOVEL PYRIMIDINYL SULFONAMIDE DERIVATIVES” (Hoffmann-La Roche Inc., priority 2023, published 2025)
One block for each molecule: values may come before it.

Experiments:
[1] = Microsome clearance assay, human; assay type: in vitro ADME; conditions: human microsomes 0.5 mg/mL plus NADPH, 37° C., test compound 1 microM; first value of cell
Procedure: (§1) Microsome Clearance Assay Protocol:
(§2) incubations at a test compound of […] in microsomes (0.5 mg/mL) plus cofactor NADPH are performed in 96 well plates at 37° C. on a TECAN (Tecan Group Ltd, Switzerland) automated liquid handling system. The final concentration of the test compound in the incubation is 1 microM. After a 10 minutes preincubation step of the test compound with the microsomes, the enzymatic reaction is started by the addition of cofactors. At 1, 3, 6, 9, 15, 25, 35 and 45 minutes, aliquots of the incubations are removed and quenched with 1:3 (v/v) acetonitrile containing internal standards. Samples are then cooled and centrifuged before analysis of the supernatant by LC-MS/MS.
(§3) Reference compounds were tested against exemplified compounds for their Microsome Clearance.

[2] = Microsome clearance assay, rat; assay type: in vitro ADME; conditions: rat microsomes 0.5 mg/mL plus NADPH, 37° C., test compound 1 microM; third value of cell
Procedure: as §1, §2, §3

[3] = target: human GPR17 short isoform (Homo sapiens, UniProt Q13304); assay: GPR17 cAMP assay (hGPR17 cAMP); assay type: cell-based; conditions: CHO-K1 cells stably expressing human GPR17 short isoform; antagonist mode with EC80 of MDL29,951, forskolin 15 μM, TR-FRET cAMP
Sequence of human GPR17 short isoform (Q13304 29-367): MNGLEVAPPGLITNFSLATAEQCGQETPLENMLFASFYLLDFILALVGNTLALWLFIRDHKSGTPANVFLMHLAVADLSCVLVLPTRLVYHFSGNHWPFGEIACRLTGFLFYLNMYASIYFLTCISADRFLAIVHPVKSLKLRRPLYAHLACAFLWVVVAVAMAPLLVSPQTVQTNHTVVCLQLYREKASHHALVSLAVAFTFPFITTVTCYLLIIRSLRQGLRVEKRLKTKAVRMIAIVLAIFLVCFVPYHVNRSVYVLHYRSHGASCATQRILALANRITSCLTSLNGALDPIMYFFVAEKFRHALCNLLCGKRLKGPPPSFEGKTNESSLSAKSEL
Procedure: GPR17 cAMP Assay Protocol:
CHO-K1 cells stably expressing vector containing untagged human GPR17 short isoform (Roche) were cultured at 37° C./5% CO2 in DMEM (Dulbecco's Modified Eagle Medium):F-12 (1:1) supplemented with 10% foetal bovine serum and 400 μg/ml Geneticin.
Changes in intracellular cyclic adenosine monophosphate (cAMP) levels were quantified using the Nano-TRF Detection Assay kit (Roche Diagnostics, Cat. No. 05214386001). This assay allows for direct cAMP quantification in a homogeneous solution. cAMP is detected based on time-resolved fluorescence energy transfer (TR-FRET) and competitive binding of ruthenylated cAMP and endogenous cAMP to an anti-cAMP monoclonal antibody labeled with AlexaFluor-700. The Ruthenium complex serves as the FRET donor and transfers energy to AlexaFluor-700. The FRET signal is inversely proportional to the cAMP concentration.
CHO-GPR17S cells were detached with Accutase and resuspended in assay buffer consisting of Hank's Balanced Salt Solution (HBSS), 10 mM HEPES (4-(2-hydroxyethyl) piperazine-1-ethanesulfonic acid solution) and 0.1% bovine serum albumin (pH 7.4). The cells were seeded in black 384-well plates (Corning) at a density of 10'000 cells/20 μl assay buffer until the addition of compounds.
Test antagonist compounds were serially diluted in dimethyl sulfoxide (DMSO) and spotted in 384-well plates. The compounds were then diluted in HBSS buffer supplemented with an EC80 concentration of MDL29,951 (3-(2-Carboxy-4,6-dichloroindol-3-yl)propionic acid) (GPR17 agonist) plus 3-Isobutyl-1-methylxanthine (IBMX) (0.5 mM final concentration) and added to the cells at room temperature. Forskolin (15 μM final concentration) was added 5 minutes after the test compounds and the cells were incubated at room temperature for 30 minutes. The assay was stopped by adding cAMP detection mix (containing detergents for cell lysis) for 90 minutes at room temperature.
Cellular cAMP was measured using a Paradigm reader (Molecular Devices). The raw data was used to calculate the FRET signal based on the assay's P-factor as per cAMP kit instructions. The data was normalized to the maximal activity of a reference antagonist and dose response curves were fitted to the percent activity of the test compounds using a sigmoidal dose response model (Genedata Screener).

[4] = Microsome clearance assay, mouse; assay type: in vitro ADME; conditions: mouse microsomes 0.5 mg/mL plus NADPH, 37° C., test compound 1 microM; second value of cell
Procedure: as §1, §2, §3

SMILES: COc1nc(NS(=O)(=O)c2c[nH]c(-c3ccccc3)c2)nc(OC)c1OCC(F)F [Example 1, N-[5-(2,2-difluoroethoxy)-4,6-dimethoxy-pyrimidin-2-yl]-5-phenyl-1H-pyrrole-3-sulfonamide]
Microsomal Clearance human [1]: 10 μL/min/mg protein
Microsomal Clearance rat [2]: 81 μL/min/mg protein
IC50 [3]: 476 nM
Microsomal Clearance mouse [4]: 21 μL/min/mg protein

SMILES: COc1nc(NS(=O)(=O)c2c[nH]c(-c3ncccc3F)c2)nc(OC)c1OCCF [Example 7, N-[5-(2-fluoroethoxy)-4,6-dimethoxy-pyrimidin-2-yl]-5-(3-fluoro-2-pyridyl)-1H-pyrrole-3-sulfonamide]
Microsomal Clearance human [1]: 10 μL/min/mg protein
Microsomal Clearance rat [2]: 32 μL/min/mg protein
IC50 [3]: 85 nM
Microsomal Clearance mouse [4]: 12 μL/min/mg protein

SMILES: COc1nc(NS(=O)(=O)c2c[nH]c(-c3nccs3)c2)nc(OC)c1OC(F)F [Example 14, N-[5-(difluoromethoxy)-4,6-dimethoxy-pyrimidin-2-yl]-5-thiazol-2-yl-1H-pyrrole-3-sulfonamide]
Microsomal Clearance human [1]: 10 μL/min/mg protein
Microsomal Clearance rat [2]: 50 μL/min/mg protein
IC50 [3]: 256 nM
Microsomal Clearance mouse [4]: 10 μL/min/mg protein

SMILES: COc1nc(NS(=O)(=O)c2c[nH]c(-c3ccccc3F)c2)nc(OC)c1CC(F)F [Example 37, N-[5-(2,2-difluoroethyl)-4,6-dimethoxy-pyrimidin-2-yl]-5-(2-fluorophenyl)-1H-pyrrole-3-sulfonamide]
IC50 [3]: 130 nM

SMILES: COc1nc(NS(=O)(=O)c2c[nH]c(-c3ccccc3F)c2)nc(OC)c1OCCF [Example 38, N-[5-(2-fluoroethoxy)-4,6-dimethoxy-pyrimidin-2-yl]-5-(2-fluorophenyl)-1H-pyrrole-3-sulfonamide]
IC50 [3]: 124 nM

SMILES: COc1nc(NS(=O)(=O)c2c[nH]c(-c3ccccc3F)c2)nc(OC)c1OC(F)F [Example 39, N-[5-(difluoromethoxy)-4,6-dimethoxy-pyrimidin-2-yl]-5-(2-fluorophenyl)-1H-pyrrole-3-sulfonamide]
IC50 [3]: 354 nM

SMILES: COc1nc(NS(=O)(=O)c2c[nH]c(-c3cnc(C)s3)c2)nc(OC)c1OCC(F)F [Example 42, N-[5-(2,2-difluoroethoxy)-4,6-dimethoxy-pyrimidin-2-yl]-5-(2-methylthiazol-5-yl)-1H-pyrrole-3-sulfonamide]
IC50 [3]: 1990 nM

SMILES: COc1nc(NS(=O)(=O)c2c[nH]c(-c3cccnn3)c2)nc(OC)c1OCC(F)F [Example 45, N-[5-(2,2-difluoroethoxy)-4,6-dimethoxy-pyrimidin-2-yl]-5-pyridazin-3-yl-1H-pyrrole-3-sulfonamide]
IC50 [3]: 253 nM

SMILES: COc1nc(NS(=O)(=O)c2c[nH]c(-c3cnccn3)c2)nc(OC)c1OCC(F)F [Example 48, N-[5-(2,2-difluoroethoxy)-4,6-dimethoxy-pyrimidin-2-yl]-5-pyrazin-2-yl-1H-pyrrole-3-sulfonamide]
IC50 [3]: 1320 nM

SMILES: COc1nc(NS(=O)(=O)c2c[nH]c(-c3ncccc3C)c2)nc(OC)c1OCC(F)F [Example 49, N-[5-(2,2-difluoroethoxy)-4,6-dimethoxy-pyrimidin-2-yl]-5-(3-methyl-2-pyridyl)-1H-pyrrole-3-sulfonamide]
IC50 [3]: 122 nM

SMILES: COc1nc(NS(=O)(=O)c2c[nH]c(C3CCC3)c2)nc(OC)c1OC(F)F [Example 50, 5-cyclobutyl-N-[5-(difluoromethoxy)-4,6-dimethoxy-pyrimidin-2-yl]-1H-pyrrole-3-sulfonamide]
IC50 [3]: 748 nM

SMILES: COc1nc(NS(=O)(=O)c2c[nH]c(C3CCC3)c2)nc(OC)c1OCC(F)F [Example 51, 5-cyclobutyl-N-[5-(2,2-difluoroethoxy)-4,6-dimethoxy-pyrimidin-2-yl]-1H-pyrrole-3-sulfonamide]
IC50 [3]: 304 nM

SMILES: N#Cc1ccc(NS(=O)(=O)c2c[nH]c(-c3ncccc3F)c2)c(F)c1 [RE-B]
microsomal CLint at 1 µM [1]: 253 µL/min/mg
microsomal CLint at 1 µM [2]: 79 µL/min/mg
microsomal CLint at 1 µM [4]: 43 µL/min/mg

Now from value to molecule:

IC50 [3]: 540 nM
SMILES: COc1nc(NS(=O)(=O)c2c[nH]c(-c3ccccc3F)c2)nc(OC)c1OCC(F)F [Example 40, N-[5-(2,2-difluoroethoxy)-4,6-dimethoxy-pyrimidin-2-yl]-5-(2-fluorophenyl)-1H-pyrrole-3-sulfonamide]

IC50 [3]: 1420 nM
SMILES: COc1nc(NS(=O)(=O)c2c[nH]c(-c3cccn(C)c3=O)c2)nc(OC)c1OCC(F)F [Example 41, N-[5-(2,2-difluoroethoxy)-4,6-dimethoxy-pyrimidin-2-yl]-5-(2-keto-1-methyl-3-pyridyl)-1H-pyrrole-3-sulfonamide]

IC50 [3]: 1250 nM
SMILES: COc1nc(NS(=O)(=O)c2c[nH]c(-c3ncccn3)c2)nc(OC)c1OCC(F)F [Example 43, N-[5-(2,2-difluoroethoxy)-4,6-dimethoxy-pyrimidin-2-yl]-5-pyrimidin-2-yl-1H-pyrrole-3-sulfonamide]

IC50 [3]: 2670 nM
SMILES: COc1nc(NS(=O)(=O)c2c[nH]c(-c3ncc(C)s3)c2)nc(OC)c1OCC(F)F [Example 44, N-[5-(2,2-difluoroethoxy)-4,6-dimethoxy-pyrimidin-2-yl]-5-(5-methylthiazol-2-yl)-1H-pyrrole-3-sulfonamide]

IC50 [3]: 77 nM
SMILES: COc1nc(NS(=O)(=O)c2c[nH]c(-c3ncccc3Cl)c2)nc(OC)c1OCC(F)F [Example 46, 5-(3-chloro-2-pyridyl)-N-[5-(2,2-difluoroethoxy)-4,6-dimethoxy-pyrimidin-2-yl]-1H-pyrrole-3-sulfonamide]

IC50 [3]: 1610 nM
SMILES: COc1nc(NS(=O)(=O)c2c[nH]c(-c3ccncn3)c2)nc(OC)c1OCC(F)F [Example 47, N-[5-(2,2-difluoroethoxy)-4,6-dimethoxy-pyrimidin-2-yl]-5-pyrimidin-4-yl-1H-pyrrole-3-sulfonamide]

microsomal CLint at 1 µM [1]: 21 µL/min/mg
microsomal CLint at 1 µM [2]: 489 µL/min/mg
microsomal CLint at 1 µM [4]: 136 µL/min/mg
SMILES: COc1nc(OCC(F)F)c(F)nc1NS(=O)(=O)c1c[nH]c(-c2ccccc2)c1 [RE-A]

microsomal CLint at 1 µM [1]: 107 µL/min/mg
microsomal CLint at 1 µM [2]: 582 µL/min/mg
microsomal CLint at 1 µM [4]: 238 µL/min/mg
SMILES: O=S(=O)(Nc1cc(F)c(Br)cc1F)c1c[nH]c(-c2ncccc2F)c1 [RE-C]

microsomal CLint at 1 µM [1]: 10 µL/min/mg
microsomal CLint at 1 µM [2]: 207 µL/min/mg
microsomal CLint at 1 µM [4]: 35 µL/min/mg
SMILES: O=S(=O)(Nc1cc(F)c(OC(F)F)cc1F)c1c[nH]c(-c2nccs2)c1 [RE-D]
